Laboratory results taken from patent US12522597B2, “Methods and compositions for modulating splicing” (Skyhawk Therapeutics, Inc., priority 2019, dated 2026).

Legend:
MDR1 = experiment: MDCK-MDR1 permeability assay (BBB penetration potential); type: in vitro ADME; conditions: dog; for efflux ratio at 120 min, 5 μM: MDCK-MDR1, pH 7.4, MDCK-MDR1: Efflux; for Papp A→B at 120 min, 5 μM: MDCK-MDR1, pH 7.4, MDCK-MDR1: Papp A-B; for Papp B→A at 120 min, 5 μM: MDCK-MDR1, pH 7.4, MDCK-MDR1: Papp B-A
Procedure: (§1) Each determination is performed in duplicate. […] Analytical conditions are outlined below.

[1] = tested on: MDR1-MDCK cell monolayers; experiment: as above; type: in vitro ADME; conditions: dog, MDCK-MDR1, 120 min, 5 μM, pH 7.4
Procedure: as §1

mHTT protein = mHTT protein assay (2B7-MW1, Mesoscale Discovery); type: cell-based, human; conditions: GM04724 (CAG 70/20) Huntington's disease patient lymphoblast cells, 48 hours, 2B7-MW1 MSD; read-out: HTT Potency - Protein EC50 mHTT (average)
Outline: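 mHTT levels were read with the 2B7-MW1 antibody pair (N17 and polyQ epitopes) on MSD after 48 h dosing, 10 μM–0.6 nM. Cells were GM04724 HD lymphoblasts (CAG 70/20). A replica plate was read by CTG for cell viability.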

| SMILES | efflux ratio at 120 min, 5 μM (MDR1) | Papp A→B at 120 min, 5 μM (MDR1) | Papp B→A at 120 min, 5 μM (MDR1) | MDCK-MDR1: % Recov A-B [1] | MDCK-MDR1: % Recov B-A [1] | EC50 (mHTT protein) |
| --- | --- | --- | --- | --- | --- | --- |
| Cn1cc(-c2ccc(-c3ccc(O[C@@H]4C[C@H]5COC[C@H](N5)[C@@H]4F)nn3)c(O)c2)cn1 (single isomer, unassigned) [124-ENT1] | 3 | 17.5 ×10⁻⁶ cm/s | 51.5 ×10⁻⁶ cm/s | 82% | 88% | 501 to 10000 nM |
| Cn1cc(-c2ccc(-c3ccc(O[C@H]4C[C@@H]5COC[C@@H](N5)[C@H]4F)nn3)c(O)c2)cn1 (single isomer, unassigned) [124-ENT2] | 3 | 16.9 ×10⁻⁶ cm/s | 43.5 ×10⁻⁶ cm/s | 86% | 89% | 501 to 10000 nM |
| Cn1ccc(=O)c2cc(-c3ccc(O[C@H]4C[C@]5(C)CCC[C@@](C)(N5)[C@H]4F)nn3)c(O)cc21 (single isomer, unassigned) [131-ENT1] | 70 | 0.71 ×10⁻⁶ cm/s | 49.5 ×10⁻⁶ cm/s | 95% | 99% | 501 to 10000 nM |
| Cn1ccc(=O)c2cc(-c3ccc(O[C@@H]4C[C@@]5(C)CCC[C@](C)(N5)[C@@H]4F)nn3)c(O)cc21 (single isomer, unassigned) [131-ENT2] | 56 | 0.79 ×10⁻⁶ cm/s | 44.6 ×10⁻⁶ cm/s | 91% | 96% | 501 to 10000 nM |
| Cn1ccc(=O)c2cc(O)c(-c3ccc(O[C@H]4C[C@]5(C)CCC[C@@](C)(N5)[C@H]4F)nn3)cc21 (single isomer, unassigned) [132-ENT1] | 142 | 0.1 ×10⁻⁶ cm/s | 14.7 ×10⁻⁶ cm/s | 90% | 95% | 101 to 500 nM |
| CNC(=O)c1ccc2cc(-c3ccc(O[C@H]4C[C@@H]5CCC[C@@H](N5)[C@H]4F)nn3)c(O)cc2n1 (single isomer, unassigned) [136-ENT1] | 28 | 2.27 ×10⁻⁶ cm/s | 62.3 ×10⁻⁶ cm/s | 88% | 101% | 0.01 to 15 nM |
| CNC(=O)c1ccc2cc(-c3ccc(O[C@H]4C[C@]5(C)CCC[C@@](C)(N5)[C@H]4F)nn3)c(O)cc2n1 (single isomer, unassigned) [137-ENT1] | 16 | 2.56 ×10⁻⁶ cm/s | 40.1 ×10⁻⁶ cm/s | 58% | 70% | 0.01 to 15 nM |
| Cn1cnc(-c2ccc(-c3ccc(O[C@@H]4C[C@H]5CCC[C@H](N5)[C@@H]4F)nn3)c(O)c2)cc1=O (single isomer, unassigned) [138-ENT1] | 47 | 1.14 ×10⁻⁶ cm/s | 53.9 ×10⁻⁶ cm/s | 86% | 98% | 51 to 100 nM |
| Cn1cnc(-c2ccc(-c3ccc(O[C@H]4C[C@@H]5CCC[C@@H](N5)[C@H]4F)nn3)c(O)c2)cc1=O (single isomer, unassigned) [138-ENT2] | 32 | 1.88 ×10⁻⁶ cm/s | 60.7 ×10⁻⁶ cm/s | 92% | 91% | 101 to 500 nM |
| Cn1cnc(-c2ccc(-c3ccc(O[C@H]4C[C@]5(C)CCC[C@@](C)(N5)[C@H]4F)nn3)c(O)c2)cc1=O (single isomer, unassigned) [139-ENT2] | 15 | 1.97 ×10⁻⁶ cm/s | 28.7 ×10⁻⁶ cm/s | 88% | 87% | 0.01 to 15 nM |
| Oc1cc(-c2nncs2)ccc1-c1ccc(O[C@H]2C[C@@H]3CC[C@@H](N3)[C@H]2F)nn1 (single isomer, unassigned) [141-ENT1] | 6 | 9.97 ×10⁻⁶ cm/s | 59.7 ×10⁻⁶ cm/s | 111% | 120% | 101 to 500 nM |
| Oc1cc(-c2nnco2)c(F)cc1-c1ccc(O[C@@H]2C[C@H]3CC[C@H](N3)[C@@H]2F)nn1 (single isomer, unassigned) [142-ENT2] | 6 | 9.4 ×10⁻⁶ cm/s | 54.5 ×10⁻⁶ cm/s | 101% | 121% | 51 to 100 nM |
| Oc1cc(-c2nnco2)c(F)cc1-c1ccc(O[C@H]2C[C@@H]3CCC[C@@H](N3)[C@H]2F)nn1 (single isomer, unassigned) [143-ENT1] | 8 | 6.56 ×10⁻⁶ cm/s | 55.7 ×10⁻⁶ cm/s | 81% | 93% | 51 to 100 nM |
| Oc1cc(-c2nnco2)c(F)cc1-c1ccc(O[C@@H]2C[C@H]3CCC[C@H](N3)[C@@H]2F)nn1 (single isomer, unassigned) [143-ENT2] | 8 | 6.91 ×10⁻⁶ cm/s | 54.8 ×10⁻⁶ cm/s | 81% | 87% | 51 to 100 nM |
| C[C@]12CCC[C@](C)(N1)[C@H](F)[C@H](Oc1ccc(-c3ccc(C#N)cc3O)nn1)C2 (single isomer, unassigned) [145-ENT1] | 4 | 9.39 ×10⁻⁶ cm/s | 42 ×10⁻⁶ cm/s | 82% | 87% | 501 to 10000 nM |
| C[C@@]12CCC[C@@](C)(N1)[C@@H](F)[C@@H](Oc1ccc(-c3ccc(C#N)cc3O)nn1)C2 (single isomer, unassigned) [145-ENT2] | 8 | 7.75 ×10⁻⁶ cm/s | 58.9 ×10⁻⁶ cm/s | 89% | 100% | 501 to 10000 nM |
| Cn1cc(-c2ccc(-c3ccc(O[C@H]4C[C@]5(C)CC[C@@](C)(N5)[C@H]4F)nn3)c(O)c2)cn1 (single isomer, unassigned) [150-ENT1] | 4 | 7.55 ×10⁻⁶ cm/s | 27.9 ×10⁻⁶ cm/s | 77% | 85% | 51 to 100 nM |
| C[C@]12CC[C@](C)(N1)[C@H](F)[C@H](Oc1ccc(-c3ccc(C#N)cc3O)nn1)C2 (single isomer, unassigned) [152-ENT1] | 5 | 11.6 ×10⁻⁶ cm/s | 59.4 ×10⁻⁶ cm/s | 88% | 98% | 501 to 10000 nM |
| C[C@@]12CC[C@@](C)(N1)[C@@H](F)[C@@H](Oc1ccc(-c3ccc(C#N)cc3O)nn1)C2 (single isomer, unassigned) [152-ENT2] | 5 | 10 ×10⁻⁶ cm/s | 53 ×10⁻⁶ cm/s | 92% | 100% | 501 to 10000 nM |
| C[C@]12CC[C@](C)(N1)[C@H](F)[C@H](Oc1ccc(-c3ccc(-n4cccn4)cc3O)nn1)C2 (single isomer, unassigned) [153-ENT1] | 5 | 7.44 ×10⁻⁶ cm/s | 34.4 ×10⁻⁶ cm/s | 67% | 76% | 51 to 100 nM |
| C[C@@]12CC[C@@](C)(N1)[C@@H](F)[C@@H](Oc1ccc(-c3ccc(-n4cccn4)cc3O)nn1)C2 (single isomer, unassigned) [153-ENT2] | 3 | 7.16 ×10⁻⁶ cm/s | 24.7 ×10⁻⁶ cm/s | 60% | 71% | 16 to 50 nM |
| CN(C)C(=O)c1cc2cc(O)c(-c3ccc(O[C@@H]4C[C@@]5(C)CCC[C@](C)(N5)[C@@H]4F)nn3)cc2o1 (single isomer, unassigned) [155-ENT1] | 16 | 3.71 ×10⁻⁶ cm/s | 59.4 ×10⁻⁶ cm/s | 90% | 95% | 501 to 10000 nM |
| CN(C)C(=O)c1cc2cc(O)c(-c3ccc(O[C@H]4C[C@]5(C)CCC[C@@](C)(N5)[C@H]4F)nn3)cc2o1 (single isomer, unassigned) [155-ENT2] | 17 | 3.84 ×10⁻⁶ cm/s | 63.7 ×10⁻⁶ cm/s | 102% | 102% | 501 to 10000 nM |
| Cn1ccc(=O)c2cc(O)c(-c3ccc(O[C@H]4C[C@]5(C)CCC[C@@](C)(N5)[C@H]4F)nn3)cc21 (stereo in doubt) [132-ENT2, 7-(6-(((1R,2R,3S,5S)-2-fluoro-1,5-dimethyl-9-azabicyclo[3.3.1]nonan-3-yl)oxy)pyridazin-3-yl)-6-hydroxy-1-methylquinolin-4(1H)-one] | 126 | 0.11 ×10⁻⁶ cm/s | 13.4 ×10⁻⁶ cm/s | 93% | 95% | 101 to 500 nM |
| Oc1cc(-c2nnco2)c(F)cc1-c1ccc(O[C@@H]2C[C@H]3CC[C@H](N3)[C@@H]2F)nn1 (stereo in doubt) [142-ENT1, 4-fluoro-2-(6-(((1S,2S,3R,5R)-2-fluoro-8-azabicyclo[3.2.1]octan-3-yl)oxy)pyridazin-3-yl)-5-(1,3,4-oxadiazol-2-yl)phenol] | 6 | 6.9 ×10⁻⁶ cm/s | 41.8 ×10⁻⁶ cm/s | 98% | 103% | 51 to 100 nM |
